Assay results published in PMC11093748, “De novo identification of CD4^+ T cell epitopes” (Nature Methods, 2024).

Legend:
BDC2.5 TCR = test: I-Ag7 SABR-II library screen, enrichment score; assay type: cell-based, mouse; conditions: for Enrichment score: I-Ag7 library; for Enrichment score EXPT1 / Enrichment score EXPT2 / Enrichment score EXPT3 / Enrichment score EXPT5 / Enrichment score EXPT7 / Enrichment score EXPT8: sheet Fig 1F, whole library; for Enrichment score EXPT1: independent biological experiment 1 of 8; for Enrichment score EXPT2: independent biological experiment 2 of 8; for Enrichment score EXPT3: independent biological experiment 3 of 8; for Enrichment score EXPT5: independent biological experiment 5 of 8; for Enrichment score EXPT7: independent biological experiment 7 of 8; for Enrichment score EXPT8: independent biological experiment 8 of 8
Text: (§1) We then asked whether SABR-IIs could be used to present a library of epitopes for CD4^+ T cell antigen discovery. To that end, we constructed a SABR-II library to present epitopes derived from pancreatic islets in I-Ag7 by curating a list of 4,075 published epitopes from the Immune Epitope Database (iedb.org)[50] and a study by Wan et al.[51] (Supplementary Table 1). Of note, this defined library consisted of unmodified epitopes from endogenous proteins, synthetic mimotopes, deamidated epitopes and hybrid insulin peptides (HIPs) that arise from post-translational fusion and are not genetically encoded in vivo[52],[53]. The epitope library was inserted into the I-Ag7 SABR-II backbone through pooled oligonucleotide synthesis, amplification and ligation-free cloning (Extended Data Fig. 3a). The I-Ag7 SABR-II-library was then expressed in NFAT–GFP Jurkat cells. We confirmed that after sequencing, the library accounted for a mean of 708 reads per epitope (Extended Data Fig. 3b). As a proof of concept, we performed co-incubation assays with Jurkat cells expressing the BDC2.5 TCR and sorted the top 1–2% of GFP^+CD69^+ cells at a rate of ~20 min per replicate with three replicates per TCR. We extracted the genomic DNA from sorted cells, amplified the SABR portion of the integrated proviruses and subjected the amplicons to Illumina sequencing (Extended Data Fig. 3c,d). The 1–2% sort gate represents >50-fold enrichment of cognate epitopes with minimal loss of signal (Extended Data Fig. 3e–h). Sequence reads were aligned to the I-Ag7 SABR-II backbone and the corresponding epitopes were scored based on their read counts. For each TCR under investigation, an enrichment score (ES) was determined for all the epitopes in a library. In each experiment, three replicates of a sort with TCR-expressing Jurkat cells were performed and reads were counted post-sequencing. In addition, three replicates of the unsorted library were also sequenced. A linear regression model was built using the unsorted library counts and used to determine the expected abundance of each epitope in the library. The ES was calculated based on the difference between the measured and the expected abundance of each epitope on a per-TCR basis (Fig. 1e). Based on ES values, two quantitative thresholds were used to determine putative cognate epitopes of a given TCR. A high-confidence zone containing clear outliers with a high ES and a low-confidence zone containing weak outliers with a moderately high ES were determined (Fig. 1e). This two-tiered strategy was used to call putative hits from screens. All the top-scoring epitopes for the BDC2.5 TCR were known BDC2.5 ligands containing the WXRM(D/E) motif (Fig. 1f,g, enriched ligands in red), a well-characterized trait of the BDC2.5 TCR[43],[54]–[56]. Across several independent experiments there was limited variation in ES values for the same TCRs and several epitopes fell into high- or low-confidence zones consistently (Extended Data Fig. 4a). Using a different TCR that was isolated from NOD mice, 4-8Ins[57], which recognized the InsB9:23 epitope ([…]), we observed a similar pattern of ES for cognate epitopes (Extended Data Fig. 4b).
(§2) For SABR library screens, 3 × 10^6 NFAT–GFP Jurkat cells expressing the SABR library were labeled with CellTrace Violet (BioLegend) according to the manufacturer’s protocol before incubation with 3 × 10^6 Jurkat cells expressing the TCR of interest. These mixtures were incubated in a six-well plate for 16–20 h. Cells were stained with anti-CD69-APC-Cy7 where indicated (BioLegend) and the top 1–2% of GFP^+CD69^+ cells were sorted for genomic DNA extraction, indexing and sequencing (see below). Multiplexed assays were scaled on a per-TCR basis (for example 3 × 10^6 for each of three TCRs against 9 × 10^6 library cells). […]

4-8Ins TCR = test: I-Ag7 SABR-II library screen, enrichment score; assay type: cell-based, mouse
Text: as §1, §2

[1] = EXPT1 of 8 biological experiments
[2] = one biological experiment (Ext. Data Fig. 6B)
[3] = EXPT1 of 3 biological experiments

Sequence | Enrichment score (BDC2.5 TCR; [1]) | Enrichment score (BDC2.5 TCR; EXPT2 of 8) | Enrichment score (BDC2.5 TCR; EXPT3 of 8) | Enrichment score (BDC2.5 TCR; EXPT4 of 8) | Enrichment score (BDC2.5 TCR; EXPT6 of 8) | Enrichment score (BDC2.5 TCR; EXPT7 of 8) | Enrichment score (BDC2.5 TCR; EXPT8 of 8) | Enrichment score (BDC2.5 TCR; [2]) | Enrichment score EXPT1 (BDC2.5 TCR) | Enrichment score EXPT2 (BDC2.5 TCR) | Enrichment score EXPT3 (BDC2.5 TCR) | Enrichment score EXPT5 (BDC2.5 TCR) | Enrichment score EXPT7 (BDC2.5 TCR) | Enrichment score EXPT8 (BDC2.5 TCR) | Enrichment score (4-8Ins TCR; [3]) | Enrichment score (4-8Ins TCR; EXPT2 of 3) | Enrichment score (4-8Ins TCR; EXPT3 of 3)
AKAAVEEGIVAGGGV | -0.0001132 | -8.351e-5 | -9.939e-5 | 5.807e-5 | 0.0001711 | 8.834e-6 | 1.023e-7 | -9.939e-5 | -8.351e-5 | -0.0001132 | -9.939e-5 | 0.0002581 | 8.834e-6 | 1.023e-7 | -1.842e-5 | 0.0001302 | -6.807e-5
AEKVRNLPAGHGLNAQ | 2.296e-5 | 1.2173e-5 | 6.168e-6 | 0.0002539 | -2.745e-5 | 9.062e-5 | 9.25e-5 | 6.168e-6 | 1.2173e-5 | 2.296e-5 | 6.168e-6 | 8.842e-5 | 9.062e-5 | 9.25e-5 | -3.1932e-6 | 0.0001517 | -4.244e-5
ALVREGLRNVAAGANP | -1.509e-5 | -2.732e-5 | -2.567e-5 | -1.199e-5 | -1.468e-5 | -1.252e-5 | -2.71e-5 | -2.567e-5 | -2.732e-5 | -1.509e-5 | -2.567e-5 | -3.182e-5 | -1.252e-5 | -2.71e-5 | -1.064e-5 | -1.266e-5 | -8.85e-6
AGGVAVIKAGAATEV | -4.65e-5 | 5.397e-5 | 2.078e-5 | 2.834e-5 | -5.5015e-5 | -7.0061e-5 | -2.822e-5 | 2.078e-5 | 5.397e-5 | -4.65e-5 | 2.078e-5 | 9.8885e-5 | -7.0061e-5 | -2.822e-5 | 2.615e-5 | -2.489e-5 | 4.9e-5
AAVEEGIVAGGGVTLL | -2.818e-5 | -9.793e-5 | 0.0001628 | -0.0001173 | 0.0001045 | -9.918e-5 | -0.0001409 | 0.0001628 | -9.793e-5 | -2.818e-5 | 0.0001628 | 9.606e-5 | -9.918e-5 | -0.0001409 | 6.335e-5 | -6.366e-5 | -1.563e-5
